# Values joined by “and” are separate entries in the source; they are usually repeats but may differ in a detail not shown here. Identical values can stand only once. Like-named read-outs stand apart in the source and are kept apart here.
# Tests used:
# [1] = test system: K. pneumoniae FADDI-KP065; assay: Neutropenic mouse pneumonia model; type: in vivo
# Method: (§1) The experimental methodology for the neutropenic mouse lung infection model was previously described in detail. Briefly, Swiss mice (female, 7-week-old, 22–28 g) were rendered neutropenic by intraperitoneal administration of cyclophosphamide, 4 days (150 mg/kg) and 1 day (100 mg/kg) prior to inoculation. Lung infection was established by the administration of 25 µL of early log-phase bacterial suspension (polymyxin-susceptible or resistant isolate, 4 × 10^7 CFU/mL), directly into the lungs via the trachea using a MicroSprayer™ device. Lipopeptide solutions were prepared in sterile saline. At 2 h after inoculation, mice (n = 3 or 4) were administered lipopeptide (45–240 mg/kg/d free base) or control (sterile saline) via an intraperitoneal or subcutaneous bolus injection in three divided doses every 8 h. At 0 or 24 h after the administration of lipopeptide solution or saline (control), animals were euthanized and lungs were collected and homogenized under sterile conditions. Homogenate was filtered and the filtrate was collected, serially diluted in sterile saline, and spread on nutrient agar plates. Agar plates were incubated at 37 °C overnight for bacterial colony counting and the bacterial load of the lung (log10 CFU/lung) in each mouse was calculated. In vivo efficacy was calculated as the difference of the log10 CFU/lung values between the treated mice at 24 h and the pre-treatment (control) at 0 h (Δlog10 CFU/lung = log10 [treated] CFU/lung − log10 [pre-treatment] CFU/lung).
# [2] = test system: P. aeruginosa FADDI-PA038; assay: Neutropenic mouse pneumonia model; type: in vivo
# Method: as §1
# A. baumannii FADDI-AB051 [3] = assay: Neutropenic mouse pneumonia model; type: in vivo
# Method: as §1
# A. baumannii FADDI-AB161 = type: cell-based, Acinetobacter baumannii; settings: polymyxin-resistant
# How it was run: (§2)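 Broth microdilution, CaMHB; MIC read as the antibacterial endpoint against ATCC reference strains and clinical isolates.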
# A. baumannii FADDI-AB051 [4] = type: cell-based, Acinetobacter baumannii; settings: carbapenem-resistant
# How it was run: as §2
# [5] = test system: K. pneumoniae FADDI-KP132; assay: MIC, polymyxin-resistant isolate; type: cell-based, Klebsiella pneumoniae; settings: mcr-1 positive
# Method: MICs were determined in cation-adjusted Mueller–Hinton broth (CaMHB) by the broth micro-dilution method against ATCC strains and clinical isolates. MICs in the presence of Survanta® were determined as described above against P. aeruginosa ATCC 27853. In the 100 μL of fresh CaMHB containing polymyxins, 10% Survanta® (v/v, 2.5 mg/mL phospholipids) was added. MICs in the presence and absence of Survanta® were compared to determine the effect of binding to lung surfactant on the antibacterial activity of polymyxins.
# [6] = Plasma pharmacokinetics in mice; type: in vivo, mouse; settings: mouse, in vivo, ip, 5 mg/kg
# Method: (§3) The plasma pharmacokinetic profiles of F365 and polymyxin B were assessed in Swiss mice (female, 7-week-old, 22–28 g) after a single intraperitoneal dose (5 mg/kg, n = 3). Blood samples were collected at various time points over 24 h post dosing for analysis. The plasma pharmacokinetic profiles of F365 (n = 5) and polymyxin B (1 mg/kg, n = 11) in Sprague-Dawley rats (male, 10-week-old, 280 to 330 g) were assessed after intravenous administration (1 min) of F365 and polymyxin B via an indwelling jugular vein cannula. Blood samples (~0.3 mL) were collected via an indwelling carotid artery cannula at various time points over 24 h post dosing. Urine samples were collected at 4 °C using a metabolic cage during the period between 0 and 24 h post dosing. Concentrations of F365 and polymyxin B in plasma and urine samples were determined using LC-MS/MS and pharmacokinetic analysis was conducted using WinNonlin (Pharsight Corp., Mountain View, CA). The ELF pharmacokinetic profiles of F365 and polymyxin B was determined in neutropenic Swiss mice (female, 7-week-old, 22–28 g) after subcutaneous injection (40 mg/kg, n = 3). Bronchoalveolar lavage (BAL) samples were collected at various time points over 24 h post dosing from the cannulated trachea using Milli-Q water as BAL washing media. The average volume of ELF in mice was calculated by the ratio of urea concentrations in plasma and BAL samples. Concentrations of F365 and polymyxin B in plasma and BAL were analyzed by LC-MS/MS. Pharmacokinetic parameters were calculated using a non-compartment model with WinNonlin. For mouse, rat, and human plasma protein binding of F365 and polymyxin B, pooled plasma samples (n = 3) from each species were spiked with F365 or polymyxin B. The spiked plasma samples were subjected to ultrafiltration and the corresponding filtrates were analyzed by LC-MS/MS to determine the concentration of F365 and polymyxin B and the protein binding in each species.
# A. baumannii FADDI-AB156 = assay: Neutropenic mouse pneumonia model, polymyxin-resistant isolate; type: in vivo; settings: 90mg/kg/d
# Method: as §1
# [7] = test system: P. aeruginosa FADDI-PA102; assay: as above; type: in vivo; settings: 90mg/kg/d
# Method: as §1
# [8] = test system: K. pneumoniae FADDI-KP132 (mcr-1 positive); assay: as above; type: in vivo; settings: 90mg/kg/d
# Method: as §1
# [9] = in vivo
# Method: as §3
# K. pneumoniae Kp MKP103 = type: cell-based, Klebsiella pneumoniae; settings: polymyxin-resistant
# How it was run: as §2
# [10] = test system: K. pneumoniae FADDI-KP027; type: cell-based, Klebsiella pneumoniae; settings: polymyxin-resistant
# How it was run: as §2
# [11] = 45 mg/kg/d IP in three divided doses every 8 h
substance,measurement,setting,value
Polymyxin B [reference compound],bacterial killing in lung at 24 h vs pre-treatment inoculum,[1]; [11],did not show any significant killing
same,"Tukey HSD diff, Pre-treatment minus treated group (Log10 CFU/lung)","[1]; Fig. c, 45mg/kg/d",-0.6875
same,"Tukey HSD diff, Vehicle minus treated group (Log10 CFU/lung)","[1]; Fig. c, 45mg/kg/d",1.1935
same,Log10 CFU/lung,"[1]; Figure 3c, 45mg/kg/d, individual mice",7.24 Log10 CFU/lung and 7.26 Log10 CFU/lung and 7.84 Log10 CFU/lung and 7.07 Log10 CFU/lung
same,bacterial killing in lung at 24 h vs pre-treatment inoculum,[2]; [11],did not show any significant killing
same,"Tukey HSD diff, Pre-treatment minus treated group (Log10 CFU/lung)","[2]; Fig. a, 45mg/kg/d",-1.2575
same,"Tukey HSD diff, Vehicle minus treated group (Log10 CFU/lung)","[2]; Fig. a, 45mg/kg/d",1.661
same,Log10 CFU/lung,"[2]; Figure 3a, 45mg/kg/d, individual mice",7.47 Log10 CFU/lung and 7.01 Log10 CFU/lung and 7.92 Log10 CFU/lung and 8.38 Log10 CFU/lung
same,bacterial killing in lung at 24 h vs pre-treatment inoculum,A. baumannii FADDI-AB051 [3]; [11],did not show any significant killing
same,"Tukey HSD diff, Pre-treatment minus treated group (Log10 CFU/lung)","A. baumannii FADDI-AB051 [3]; Fig. b, 45mg/kg/d",-1.5825
same,"Tukey HSD diff, Vehicle minus treated group (Log10 CFU/lung)","A. baumannii FADDI-AB051 [3]; Fig. b, 45mg/kg/d",0.4067
same,Log10 CFU/lung,"A. baumannii FADDI-AB051 [3]; Figure 3b, 45mg/kg/d, individual mice",8.40 Log10 CFU/lung and 8.27 Log10 CFU/lung and 8.53 Log10 CFU/lung and 8.10 Log10 CFU/lung
same,MIC A. baumannii FADDI-AB161,A. baumannii FADDI-AB161,8 µg/mL
same,MIC A. baumannii FADDI-AB051,A. baumannii FADDI-AB051 [4],0.5 µg/mL
same,MIC K. pneumoniae FADDI-KP132,[5],8 µg/mL
same,half-life,[6],1.40 h
same,"Tukey HSD diff, Pre-treatment minus treated group (Log10 CFU/lung)",A. baumannii FADDI-AB156; Fig. e,-1.5075
same,"Tukey HSD diff, Vehicle minus treated group (Log10 CFU/lung)",A. baumannii FADDI-AB156; Fig. e,-0.114
same,Log10 CFU/lung,"A. baumannii FADDI-AB156; Figure 3e, individual mice",8.23 Log10 CFU/lung and 8.17 Log10 CFU/lung and 7.75 Log10 CFU/lung
same,"Tukey HSD diff, Pre-treatment minus treated group (Log10 CFU/lung)",[7]; Fig. d,-0.1967
same,"Tukey HSD diff, Vehicle minus treated group (Log10 CFU/lung)",[7]; Fig. d,0.1873
same,Log10 CFU/lung,"[7]; Figure 3d, individual mice",7.28 Log10 CFU/lung and 7.23 Log10 CFU/lung and 7.74 Log10 CFU/lung
same,"Tukey HSD diff, Pre-treatment minus treated group (Log10 CFU/lung)",[8]; Fig. f,-1.82
same,"Tukey HSD diff, Vehicle minus treated group (Log10 CFU/lung)",[8]; Fig. f,1.0725
same,Log10 CFU/lung,"[8]; Figure 3f, individual mice",7.88 Log10 CFU/lung and 8.02 Log10 CFU/lung and 6.98 Log10 CFU/lung and 6.57 Log10 CFU/lung
same,AUC(0-∞) in ELF,"[9]; mouse, sc, 40 mg/kg",80000 ng·h/mL
same,Free AUC(0-∞) in ELF (estimated fAUCELF),"[9]; mouse, sc, 40 mg/kg",10000 ng·h/mL
same,Total CL,"[9]; mouse, sc, 40 mg/kg",8.33 mL/min/kg
same,half-life,"[9]; mouse, sc, 40 mg/kg",6.70 h
same,half-life,"[9]; rat, iv, 1 mg/kg",1.45 h
same,MIC K. pneumoniae Kp MKP103,K. pneumoniae Kp MKP103,16 µg/mL
same,MIC K. pneumoniae FADDI-KP027,[10],> 32 µg/mL
